The values that follow come from US20230365592A1 (Agios Pharmaceuticals, Inc., priority 2022, published 2023).

For the experiment, the target named is T1, human PAH with the R408W mutation (Homo sapiens, UniProt P00439, R408W).
T1 construct: expressed in transfected cells
T1 sequence (P00439 1-452 R408W): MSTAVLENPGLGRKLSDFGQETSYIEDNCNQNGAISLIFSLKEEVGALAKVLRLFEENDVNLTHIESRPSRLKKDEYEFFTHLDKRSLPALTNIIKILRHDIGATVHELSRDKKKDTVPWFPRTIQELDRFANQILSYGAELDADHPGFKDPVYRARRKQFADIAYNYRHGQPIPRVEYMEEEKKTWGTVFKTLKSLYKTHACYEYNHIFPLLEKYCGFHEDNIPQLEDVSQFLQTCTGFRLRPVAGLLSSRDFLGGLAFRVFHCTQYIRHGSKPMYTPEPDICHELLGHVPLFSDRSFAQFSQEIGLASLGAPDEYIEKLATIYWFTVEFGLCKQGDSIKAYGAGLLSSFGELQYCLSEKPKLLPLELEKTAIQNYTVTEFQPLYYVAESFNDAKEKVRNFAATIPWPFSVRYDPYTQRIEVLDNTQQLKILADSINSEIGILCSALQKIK
The experiment in a line: Cell Based Phenylalanine Flux Assay.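 Further: after compound treatment, cells received sepiapterin plus isotope-labelled Phenylalanine for 4 hours, then labelled Tyrosine in the medium was quantified, 10-point 2-fold dilution series run in duplicate.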 As to conditions: A375 cells expressing human R408W PAH; 24 hrs compound incubation; 13C-Tyrosine by LC-MS; average where tested multiple times; read-out: AC50.

Some results are limits rather than exact numbers.

With `Cc1nn(C)cc1-c1nnc(C(=O)N2CCc3[nH]cnc3[C@@H]2c2cc3c(F)cccn3n2)o1` [Example 847, (R)-(5-(1,3-dimethyl-1H-pyrazol-4-yl)-1,3,4-oxadiazol-2-yl)(4-(4-fluoropyrazolo[1,5-a]pyridin-2-yl)-6,7-dihydro-1H-imidazo[4,5-c]pyridin-5(4H)-yl)methanone], the half-maximal activity concentration (AC50) (commonly the concentration at which the activity in the assay is half-maximal) was over 5000 nM.
As to `Cc1cccn2nc([C@@H]3c4nc[nH]c4CCN3C(=O)c3nnc(-c4ccncc4)o3)cc12` [Example 850, (S)-(4-(4-methylpyrazolo[1,5-a]pyridin-2-yl)-6,7-dihydro-1H-imidazo[4,5-c]pyridin-5(4H)-yl)(5-(pyridin-4-yl)-1,3,4-oxadiazol-2-yl)methanone], the AC50 is under 500 nM.
The result for `Cc1cccn2nc([C@H]3c4nc[nH]c4CCN3C(=O)c3nnc(-c4ccncc4)o3)cc12` [Example 851, (R)-(4-(4-methylpyrazolo[1,5-a]pyridin-2-yl)-6,7-dihydro-1H-imidazo[4,5-c]pyridin-5(4H)-yl)(5-(pyridin-4-yl)-1,3,4-oxadiazol-2-yl)methanone] reads over 5000 nM; that for `Cc1cccn2nc([C@@H]3c4nc[nH]c4CCN3C(=O)c3nnc(-c4cnn(S(=O)(=O)C5CC5)c4)o3)cc12` [Example 852, (S)-(5-(1-(cyclopropylsulfonyl)-1H-pyrazol-4-yl)-1,3,4-oxadiazol-2-yl)(4-(4-methylpyrazolo[1,5-a]pyridin-2-yl)-6,7-dihydro-1H-imidazo[4,5-c]pyridin-5(4H)-yl)methanone], 500 to 1000 nM; that for `Cc1cccn2nc([C@@H]3c4nc[nH]c4CCN3C(=O)c3nnc(-c4cc(C)n(C)n4)o3)cc12` [Example 854, (S)-(5-(1,5-dimethyl-1H-pyrazol-3-yl)-1,3,4-oxadiazol-2-yl)(4-(4-methylpyrazolo[1,5-a]pyridin-2-yl)-6,7-dihydro-1H-imidazo[4,5-c]pyridin-5(4H)-yl)methanone], under 500 nM.
Take `Cc1cccn2nc([C@H]3c4nc[nH]c4CCN3C(=O)c3nnc(-c4cc(C)n(C)n4)o3)cc12` [Example 855, (R)-(5-(1,5-dimethyl-1H-pyrazol-3-yl)-1,3,4-oxadiazol-2-yl)(4-(4-methylpyrazolo[1,5-a]pyridin-2-yl)-6,7-dihydro-1H-imidazo[4,5-c]pyridin-5(4H)-yl)methanone]: the AC50 was over 5000 nM.
In the case of `CC(C)n1nccc1C(=O)N1CCc2[nH]cnc2[C@H]1c1cc2ccccn2n1` [Example 856, (S)-(1-isopropyl-1H-pyrazol-5-yl)(4-(pyrazolo[1,5-a]pyridin-2-yl)-6,7-dihydro-1H-imidazo[4,5-c]pyridin-5(4H)-yl)methanone], the AC50 is under 500 nM.
Regarding `CC(C)n1nccc1C(=O)N1CCc2[nH]cnc2[C@H]1c1cc2c(F)cccn2n1` [Example 858, (S)-(4-(4-fluoropyrazolo[1,5-a]pyridin-2-yl)-6,7-dihydro-1H-imidazo[4,5-c]pyridin-5(4H)-yl)(1-isopropyl-1H-pyrazol-5-yl)methanone], the AC50 is under 500 nM.
Take `Cc1cccn2nc([C@@H]3c4nc[nH]c4CCN3C(=O)c3ccnn3C3CC3)cc12` [Example 860, (S)-(1-cyclopropyl-1H-pyrazol-5-yl)(4-(4-methylpyrazolo[1,5-a]pyridin-2-yl)-6,7-dihydro-1H-imidazo[4,5-c]pyridin-5(4H)-yl)methanone]: the AC50 was under 500 nM.
The result for `Cc1cccn2nc([C@@H]3c4nc[nH]c4CCN3C(=O)c3ccnn3-c3ccccn3)cc12` [Example 862, (S)-(4-(4-methylpyrazolo[1,5-a]pyridin-2-yl)-6,7-dihydro-1H-imidazo[4,5-c]pyridin-5(4H)-yl)(1-(pyridin-2-yl)-1H-pyrazol-5-yl)methanone] reads under 500 nM; that for `Cn1nc(C(F)F)cc1C(=O)N1CCc2[nH]cnc2[C@H]1c1cc2c(F)cccn2n1` [Example 864, (S)-(3-(difluoromethyl)-1-methyl-1H-pyrazol-5-yl)(4-(4-fluoropyrazolo[1,5-a]pyridin-2-yl)-6,7-dihydro-1H-imidazo[4,5-c]pyridin-5(4H)-yl)methanone], under 500 nM.
